Data: ChEMBL document CHEMBL5303573, “Mapping human microbiome drug metabolism by gut bacteria and their genes” (Nature, 2019)

Assays:
[1] = The drug is tested on Bifidobacterium breve strain: DSM20213 for biotransformation. The drug concentrations were measured before and after a 12-h incubation by liquid-chromatography-coupled mass spectrometry (LC–MS); settings: 2 µM
[2] = The drug is tested on Collinsella intestinalis strain: DSM13280 for biotransformation. The drug concentrations were measured before and after a 12-h incubation by liquid-chromatography-coupled mass spectrometry (LC–MS); settings: 2 µM
[3] = The drug is tested on Bacteroides dorei strain: DSM17855 for biotransformation. The drug concentrations were measured before and after a 12-h incubation by liquid-chromatography-coupled mass spectrometry (LC–MS); settings: phocaeicola dorei, 2 µM
[4] = The drug is tested on Bacteroides finegoldii strain: DSM17565 for biotransformation. The drug concentrations were measured before and after a 12-h incubation by liquid-chromatography-coupled mass spectrometry (LC–MS); settings: 2 µM
[5] = The drug is tested on Bacteroides ovatus strain: ATCC8483 for biotransformation. The drug concentrations were measured before and after a 12-h incubation by liquid-chromatography-coupled mass spectrometry (LC–MS); settings: 2 µM
[6] = The drug is tested on Bacteroides pectinophilus strain: ATCC43243 for biotransformation. The drug concentrations were measured before and after a 12-h incubation by liquid-chromatography-coupled mass spectrometry (LC–MS); settings: 2 µM
[7] = The drug is tested on Bacteroides sp. WH2 strain: WH2 for biotransformation. The drug concentrations were measured before and after a 12-h incubation by liquid-chromatography-coupled mass spectrometry (LC–MS); settings: bacteroides sp. wh2, 12 h, 2 µM
[8] = The drug is tested on Anaerococcus hydrogenalis strain: DSM7454 for biotransformation. The drug concentrations were measured before and after a 12-h incubation by liquid-chromatography-coupled mass spectrometry (LC–MS); settings: 2 µM
[9] = The drug is tested on Anaerotruncus colihominis strain: DSM17241 for biotransformation. The drug concentrations were measured before and after a 12-h incubation by liquid-chromatography-coupled mass spectrometry (LC–MS); settings: 2 µM
[10] = The drug is tested on Blautia hansenii strain: DSM20583 for biotransformation. The drug concentrations were measured before and after a 12-h incubation by liquid-chromatography-coupled mass spectrometry (LC–MS); settings: 2 µM
[11] = The drug is tested on Clostridium sp. strain: fecal isolate for biotransformation. The drug concentrations were measured before and after a 12-h incubation by liquid-chromatography-coupled mass spectrometry (LC–MS); settings: 2 µM
[12] = The drug is tested on Ruminococcus torques strain: ATCC27756 for biotransformation. The drug concentrations were measured before and after a 12-h incubation by liquid-chromatography-coupled mass spectrometry (LC–MS); format: ADME; set-up: dose 2 uM, timepoint 0 vs 12 hours; settings: 2 µM
[13] = The drug is tested on Providencia rettgeri strain: DSM1131 for biotransformation. The drug concentrations were measured before and after a 12-h incubation by liquid-chromatography-coupled mass spectrometry (LC–MS); format: ADME; set-up: dose 2 uM, timepoint 0 vs 12 hours; settings: 2 µM
[14] = bacteroides eggerthii, 12 h, 2 µM
Description: The drug is tested on Bacteroides eggerthii strain: DSM20697 for biotransformation. The drug concentrations were measured before and after a 12-h incubation by liquid-chromatography-coupled mass spectrometry (LC–MS)

[15] = bacteroides stercoris, 12 h, 2 µM
Description: The drug is tested on Bacteroides stercoris strain: ATCC43183 for biotransformation. The drug concentrations were measured before and after a 12-h incubation by liquid-chromatography-coupled mass spectrometry (LC–MS)

[16] = bacteroides thetaiotaomicron, 12 h, 2 µM
Description: The drug is tested on Bacteroides thetaiotaomicron strain: 7330 for biotransformation. The drug concentrations were measured before and after a 12-h incubation by liquid-chromatography-coupled mass spectrometry (LC–MS)

[17] = The drug is tested on Bifidobacterium longum subsp. Infantis strain: CCUG52486 for biotransformation. The drug concentrations were measured before and after a 12-h incubation by liquid-chromatography-coupled mass spectrometry (LC–MS); settings: 2 µM
[18] = The drug is tested on Eubacterium rectale strain: ATCC33656 for biotransformation. The drug concentrations were measured before and after a 12-h incubation by liquid-chromatography-coupled mass spectrometry (LC–MS); settings: agathobacter rectalis, 2 µM
[19] = parabacteroides distasonis, 12 h, 2 µM
Description: The drug is tested on Parabacteroides distasonis strain: ATCC8503 for biotransformation. The drug concentrations were measured before and after a 12-h incubation by liquid-chromatography-coupled mass spectrometry (LC–MS)

[20] = limosilactobacillus reuteri cf48-3a, 12 h, 2 µM
Description: The drug is tested on Lactobacillus reuteri CF48-3A strain: BEI HM-102 for biotransformation. The drug concentrations were measured before and after a 12-h incubation by liquid-chromatography-coupled mass spectrometry (LC–MS)

Row | Compound | Bacterial Biotransformation [1] | Bacterial Biotransformation [2] | Bacterial Biotransformation [3] | Bacterial Biotransformation [4] | Bacterial Biotransformation [5] | Bacterial Biotransformation [6] | Bacterial Biotransformation [7] | Bacterial Biotransformation [8] | Bacterial Biotransformation [9] | Bacterial Biotransformation [10] | Bacterial Biotransformation [11] | Bacterial Biotransformation [12] | Bacterial Biotransformation [13] | Bacterial Biotransformation [14] | Bacterial Biotransformation [15] | Bacterial Biotransformation [16] | Bacterial Biotransformation [17] | Bacterial Biotransformation [18] | Bacterial Biotransformation [19] | Bacterial Biotransformation [20]
1 | COc1cc2nc(N3CCN(C(=O)C4COc5ccccc5O4)CC3)nc(N)c2cc1OC.CS(=O)(=O)O (stereo unspecified) [DOXAZOSIN MESYLATE] | Compound NOT metabolized | Compound NOT metabolized | Compound metabolized | Compound NOT metabolized | Compound NOT metabolized | Compound NOT metabolized | Compound NOT metabolized | Compound NOT metabolized | Compound NOT metabolized | Compound metabolized | Compound metabolized | Compound NOT metabolized | Compound NOT metabolized | Compound NOT metabolized | Compound NOT metabolized | Compound NOT metabolized | – | – | – | –
2 | CC(C)c1c(CN(C)C(C)Cc2ccccc2)n(C)n(-c2ccccc2)c1=O (stereo unspecified) [FAMPROFAZONE] | Compound NOT metabolized | – | Compound metabolized | Compound metabolized | Compound metabolized | Compound NOT metabolized | Compound metabolized | Compound metabolized | – | Compound metabolized | – | Compound NOT metabolized | Compound NOT metabolized | Compound metabolized | Compound metabolized | Compound metabolized | Compound NOT metabolized | Compound NOT metabolized | Compound metabolized | Compound metabolized
3 | Fc1ccc([C@@H]2CCNC[C@H]2COc2ccc3c(c2)OCO3)cc1 [PAROXETINE] | Compound NOT metabolized | Compound NOT metabolized | – | Compound metabolized | Compound NOT metabolized | Compound metabolized | Compound NOT metabolized | Compound metabolized | Compound metabolized | Compound NOT metabolized | Compound metabolized | Compound NOT metabolized | Compound NOT metabolized | Compound NOT metabolized | Compound metabolized | Compound NOT metabolized | Compound NOT metabolized | – | Compound NOT metabolized | Compound NOT metabolized
4 | COc1ccc2c3c1O[C@H]1C[C@@H](O)C=C[C@@]31CCN(C)C2 [GALANTAMINE] | Compound NOT metabolized | Compound NOT metabolized | Compound NOT metabolized | – | Compound metabolized | Compound NOT metabolized | Compound metabolized | Compound NOT metabolized | Compound NOT metabolized | Compound NOT metabolized | Compound NOT metabolized | Compound NOT metabolized | Compound NOT metabolized | Compound metabolized | Compound NOT metabolized | Compound metabolized | – | – | – | –
5 | OC(Cn1cncn1)(Cn1cncn1)c1ccc(F)cc1F [FLUCONAZOLE] | Compound NOT metabolized | Compound NOT metabolized | Compound metabolized | Compound NOT metabolized | Compound metabolized | Compound NOT metabolized | Compound NOT metabolized | Compound NOT metabolized | Compound metabolized | Compound metabolized | Compound metabolized | Compound metabolized | – | – | Compound metabolized | Compound metabolized | Compound NOT metabolized | – | Compound NOT metabolized | Compound NOT metabolized
6 | Nc1nc(N)nc(-c2cc(Cl)ccc2Cl)n1.O=C(O)/C=C\C(=O)O [IRSOGLADINE MALEATE] | Compound NOT metabolized | Compound NOT metabolized | Compound metabolized | Compound NOT metabolized | Compound NOT metabolized | Compound NOT metabolized | Compound NOT metabolized | Compound NOT metabolized | Compound NOT metabolized | Compound NOT metabolized | Compound NOT metabolized | Compound NOT metabolized | Compound NOT metabolized | Compound NOT metabolized | Compound NOT metabolized | Compound NOT metabolized | – | – | – | –
7 | CO[C@]12C[C@@H](COC(=O)c3cncc(Br)c3)CN(C)[C@@H]1Cc1cn(C)c3cccc2c13 [NICERGOLINE] | Compound NOT metabolized | Compound NOT metabolized | Compound metabolized | Compound NOT metabolized | Compound NOT metabolized | Compound NOT metabolized | Compound NOT metabolized | – | Compound NOT metabolized | Compound NOT metabolized | Compound NOT metabolized | Compound NOT metabolized | – | Compound NOT metabolized | Compound NOT metabolized | Compound NOT metabolized | Compound NOT metabolized | – | Compound NOT metabolized | Compound NOT metabolized
8 | COc1ccccc1OCC(O)COC(N)=O (stereo unspecified) [METHOCARBAMOL] | Compound NOT metabolized | Compound NOT metabolized | Compound NOT metabolized | Compound NOT metabolized | Compound NOT metabolized | – | Compound NOT metabolized | – | Compound NOT metabolized | Compound NOT metabolized | – | Compound NOT metabolized | Compound NOT metabolized | Compound NOT metabolized | Compound NOT metabolized | Compound NOT metabolized | Compound NOT metabolized | Compound NOT metabolized | Compound NOT metabolized | Compound NOT metabolized
9 | OCCN1CCN(CCCN2c3ccccc3Sc3ccc(C(F)(F)F)cc32)CC1 [FLUPHENAZINE] | Compound NOT metabolized | Compound NOT metabolized | Compound metabolized | Compound metabolized | Compound NOT metabolized | Compound NOT metabolized | Compound NOT metabolized | Compound NOT metabolized | – | Compound NOT metabolized | – | Compound NOT metabolized | Compound NOT metabolized | Compound NOT metabolized | Compound metabolized | Compound metabolized | Compound NOT metabolized | Compound metabolized | Compound metabolized | Compound metabolized
